According to ChEMBL document CHEMBL1155619, “Kurstakins: a new class of lipopeptides isolated from Bacillus thuringiensis” (2000):
The source made the active and inactive calls. The rule behind the calls is not given here. Starred links: 1 amine or outer side, 2 acyl side, 3 side chain; linkers in the order of their positions; H or OH if unused. Positions of bridges follow the written chain, without caps; N, C: chain ends. Non-standard residues stand in square brackets, D forms with d. Residues, ends and D or L forms follow the SMILES beside them. X1 = CC(C)CCCCCCCCC[C@H](CC(=O)[*:1])O[*:2]

System: Stachybotrys chartarum
Assay: Antifungal activity against Stachybotrys charatum assessed as zone of inhibition at 80 ug after 24 hrs
Assay type: functional

In the case of `CC(C)CCCCCCCCC[C@@H]1CC(=O)N[C@@H](CCC(=O)O)C(=O)N[C@@H](CC(C)C)C(=O)N[C@H](CC(C)C)C(=O)N[C@@H](C(C)C)C(=O)N[C@@H](CC(=O)O)C(=O)N[C@H](CC(C)C)C(=O)N[C@@H](CC(C)C)C(=O)O1` (EL[dL]VD[dL]L; linker N-C via X1), the Activity is reported as “inactive”.
